Measurements from patent US8216821B2, “Regulation of heterologous recombinant protein expression in methylotrophic and methanotrophic bacteria” (National Research Council of Canada, priority 2005, dated 2012).

Columns and labels:
[1] = target: T1, repressor protein (cymR) (Pseudomonas putida, UniProt O33453); test: cumate induction of gfp reporter gene expression in M. extorquens (cymR2) transformed with pCUM-gfp; assay type: cell-based, Pseudomonas putida F1
T1 construct: expressed in transfected cells; host or cells: Methylobacterium extorquens ATCC 55366, strain cymR2 (two cymR copies integrated by mini-Tn7 under PmxaF), carrying pCUM-gfp
Description: Detection of gene expression Detection of GFP was carried out by fluorescence microscopy, and quantified by using a SPECTRAFluor Plus (TECAN Austria Gmbh, GrodIg, Austria) under excitation and emission wavelengths of 485 and 508 nm, respectively. Concentration of GFP was calculated based on a linear relationship between concentration and fluorescence units determined using solutions of purified GFP (Qbiogene). The biomass (X) was determined by cell dry weight measurement of the samples (Moisture Analyzer MA 30, Sartorius).
(§1) To test the optimal concentration of inducer, cumate, recombinant M. extorquens (cymR2) transformed with pCUM-gfp was grown to mid-log phase (0.8-1.0 units at OD600) at 30° C. followed by induction with cumate at different concentrations. Reporter gene expression was detectable 4 h post induction. Cumate induction was very sensitive since about 47% of reporter gene expression was obtained with 1 μg cumate/ml (FIG. 5). […] Optimum cumate concentration for effective induction of reporter gene expression was 15 μg/ml (ca. 0.1 mM).

[2] = system: M. extorquens (cymR2); assay type: cell-based, Methylobacterium extorquens; conditions: cumate 1-30 μg/ml
Description: M. extorquens (ATCC 55366) was used for the preparation of the heterologous gene expression host. E. coli strain Top10 was used for cloning and propagation of recombinant DNA and S17-1λpir (recA, thi, pro, hsdR^−M^+ RP4:2-Tc:Mu:Km Tn7, pir lysogen; Sm^R, Tp^R) was used for propagation of the helper plasmid (23). E. coli was cultured in Luria Bertani broth (LB) at 37° C. Strain of M. extorquens was grown in CHOI medium, as previously described (17) and 1% (v/v) methanol was used as sole carbon source. Both media were solidified by 1.8% agar (Difco) when appropriate. Antibiotics were used for E. coli and M. extorquens at the following concentrations (in ug/ml): ampicillin, 100; kanamycin (Km), 40; tetracyclin (Tc), 35.
as §1

[3] = system: cym and cmt operons; conditions: P. putida F1, regulated by cymR; cited from earlier work

T1 sequence (O33453 whole entry): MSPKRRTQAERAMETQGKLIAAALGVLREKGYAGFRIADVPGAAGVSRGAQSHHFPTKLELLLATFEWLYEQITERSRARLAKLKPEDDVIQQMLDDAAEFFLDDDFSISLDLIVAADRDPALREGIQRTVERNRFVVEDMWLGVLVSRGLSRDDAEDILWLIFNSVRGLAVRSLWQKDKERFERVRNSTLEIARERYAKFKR

Row | Structure (SMILES) | cumate concentration giving maximum gene expression ([1]; FIG. 5, gfp expression) | time post induction at which reporter gene expression was detectable ([1]; cumate at different concentrations) | optimum cumate concentration for effective induction of reporter gene expression ([1]; induced at OD600 0.8-1.0, 30° C.) | optimum cumate concentration for effective induction of reporter gene expression ([1]; molar equivalent of 15 μg/ml) | time post induction of maximum GFP expression ([1]; pCUM-GFP clones, FIG. 7a, cumate 15 μg/ml) | effect on growth [2] | induction of cym/cmt operon expression [3]
1 | CC(C)c1ccc(C(=O)O)cc1 [cumate, p-isopropylbenzoate] | 15-30 μg cumate/ml | 4 h | 15 µg/mL | ca. 0.1 mM | 30 h | No growth difference | Induction is afforded
2 | Cc1ccc(C(C)C)cc1 [p-cymene, p-isopropyltoluene] |  |  |  |  |  |  | not
